Data: patent US12679801B2, “Amino lipid and preparation method and application thereof” (Shenzhen MagicRNA Biotechnology Co., Ltd., priority 2022, dated 2026)

Test system: BMDC primary cells
Experiment: Luc mRNA LNP transfection on BMDC primary cells (Embodiment 13, Table 3)
Assay type: cell-based, C57BL/6 mice
Conditions: 16 h, ONE-Glo Luciferase
Experimental: Preparation method: the same as that described in Embodiment 7.
Animal preparation: 6-week-old female C57BL/6 mice with the body weight about 20 g were selected. The feeding environment was an SPF stage feeding room. Animal tests were strictly performed according to the guide of the national health institute and the animal ethics requirements.
(§1) Cell acquisition: C57BL/6 mice were killed through cervical dislocation, and were soaked for 5 min in 75% ethyl alcohol. Dissection was performed to obtain thigh and calf tibiae of the mice. Attached muscles were removed to expose sclerotin. Then, bone marrow in tibiae was blown out by using a 1 mL injector sucked with PBS. After the bone marrow was blown away, impurities were filtered away by a 50 μm filter screen. A red blood cell lysis buffer (3-4 mL) was added into an obtained filtrate. Then, after placement for 5 min, 800 g centrifugation was performed for 5 min to remove the supernatant. The obtained cells were placed into a 1640 culture medium (containing 10% fetal calf serum, 20 ng/mL GMCSF and 10 ng/ml IL4) to be resuspended, and were inoculated into a 6-well plate at an inoculation density of 100000 cells/ml culture medium. The materials were placed into a 37° C. cell incubator containing 5% CO2. Half liquid change was performed once every 2 days. Suspended cells and loose wall attached cells were collected on the seventh day, and were per well, and the volume of a culture medium was 100 μL.
(§2) Cell transfection: lipid nanoparticles coated with luciferase mRNA were added into a 96-well all-white ELISA plate laid with primary cells. The adding volume of the mRNA lipid nanoparticles in each well was controlled to be 10 μL. Then, the materials were put into a 37° C. incubator containing 5% CO2 for 16 h.
Transfection efficiency detection: 20 μL of a substrate ONE-Glo™ Luciferase was added into each well of a 96-well all-white ELISA plate. After 1 min, detection was performed by a multifunctional or multimode microplate reader.

| Compound | Luciferase luminescence intensity |
| --- | --- |
| CCCCCCCCCC(COC(=O)C(CCCCCC)CCCCCCCC)OC(=O)CCCCCN(C)C (stereo not shown) [E6C71A12] | 7.3E+ 04 |

Test system: B16-OVA melanoma cells
Experiment: OVA mRNA LNP vaccine, in-vivo immunity and tumor treatment (Embodiment 15)
Parameters: species or system C57BL/6 mice
Conditions: B16-OVA tumor-bearing mice, two intramuscular injections of LNP with 1 μg OVA-mRNA, 7 days apart
Experimental: Preparation method: the amino lipid compounds of the disclosure, DSPC, cholesterol and PEG2000-DMG were mixed according to a mole ratio of 50:10:38.5:1.5 and were dissolved in absolute ethyl alcohol. OVA mRNA was dissolved in a sodium acetate buffer solution (50 nM, pH=4.0). The obtained ethyl alcohol solution and the acetate buffer solution […] were mixed in a micro-fluidic chip according to a volume ratio of 1:3 by using a micro-fluidic preparation system to obtain lipid nanoparticles. Then, dialysis was performed for 6 h under the conditions of 1×PBS and temperature was controlled at 4° C. by using a dialysis cassettes or box (MWCO 20,000). Filtration was performed by a 0.22 μm microporous filtering membrane prior to use. The mass ratio of the amino lipid compound to OVA mRNA was about 10:1.
Animal preparation: 5-6-week-old female C57BL/6 mice with the body weight about 18 to 20 g were selected. The feeding environment was an SPF stage feeding room. Animal tests were strictly performed according to the guide of the national health institute and the animal ethics requirements.
In-vivo delivery: B16-OVA melanoma cells (1.5×10^5) were injected to the outer thighs of the mice through subcutaneous injection. When the tumor grew to 50 mm^3 (on the about 6th or 7th day after tumor inoculation), the mice began to inoculated vaccines, the animals were subjected to twice immunization through intramuscular injection of an LNP preparation containing 1 μg OVA-mRNA. An interval between first and second injections was 7 days. The tumor growth was measured for 3 times every week by a digital display calliper, and a calculation formula was […]. When the tumor size reached 1500 mm^3, the mice received euthanasia. Additionally, 60% of mice (E7C71A9 group) and 40% of mice (E6C71A12 group) respectively reached the complete relieving effect.

| Compound | mice that reached the complete relieving effect | result (survival curve, FIG. 4) compared with MC3 group | tumor growth speed compared with MC3 group (FIG. 3) |
| --- | --- | --- | --- |
| CCCCCCCCCC(COC(=O)C(CCCCCC)CCCCCCCC)OC(=O)CCCCCN(C)C (stereo not shown) [E6C71A12] | 40% | obviously superior to that of MC3 group | obviously lower than that of MC3 group |

Test system: BMDC primary cells
Experiment: Luc mRNA LNP transfection on BMDC primary cells (Embodiment 21, Table 9)
Assay type: cell-based, C57BL/6 mice
Conditions: 16 h, ONE-Glo Luciferase
Experimental: Preparation method: the same as that in Embodiment 17.
Animal preparation: 6-week-old female C57BL/6 mice with the body weight about 20 g were selected. A feeding environment was an SPF stage feeding room. Animal tests were strictly performed according to the guide of the national health institute and the animal ethics requirements.
as §1, with “to remove a supernatant. The” for “to remove the supernatant. The”, “and 10 ng/mL IL4) to” for “and 10 ng/ml IL4) to”, “and were inoculated to a 96-well all-white ELISA plate at the inoculation density of 20000 cells per well,” for “and were per well,”
as §2, with “white” for “all-white”
Transfection efficiency detection: 20 μL of a substrate ONE-Glo™ Luciferase was added into each well of a 96-well all-white ELISA plate, and after 1 min, detection was performed by a multifunctional or multimode microplate reader.

| Compound | Luciferase luminescence intensity |
| --- | --- |
| CCCCCCCCCCCC(COC(=O)C(CCCC)CCCCCCCCCC)OC(=O)CCCN(C)C (stereo not shown) [E8C104A9] | 3.7E+04 |
| CCCCCCCCCCCC(COC(=O)C(CCCCC)CCCCCCCCC)OC(=O)CCCN(C)C (stereo not shown) [E8C109A9] | 4.8E+04 |
| CCCCCCCCCCCC(COC(=O)C(CCCCC)CCCCCCCCCCC)OC(=O)CCCN(C)C (stereo not shown) [E8C111A9] | 4.6E+04 |
| CCCCCCCCCCCC(COC(=O)C(CCCCCCC)CCCCCCC)OC(=O)CCCN(C)C (stereo not shown) [E8C114A9] | 6.8E+04 |
| CCCCCCCCCCCC(COC(=O)C(CCCCCCC)CCCCCCC)OC(=O)CCCCN(C)C (stereo not shown) [E8C114A11] | 1.3E+05 |
| CCCCCCCCCCCC(COC(=O)C(CCCCCCCC)CCCCCCCC)OC(=O)CCCN(C)C (stereo not shown) [E8C115A9] | 6.0E+04 |
| CCCCCCCCCCCC(COC(=O)C(CCCCCCCC)CCCCCCCC)OC(=O)CCCCN(C)C (stereo not shown) [E8C115A11] | 1.9E+05 |
| CCCCCCCCCCCC(COC(=O)C(CCCCCCCCC)CCCCCCCCC)OC(=O)CCCCN(C)C (stereo not shown) [E8C116A11] | 5.0E+04 |
| CCCCCCCCCCCC(COC(=O)CC(CCCCC)CCCCCCCCC)OC(=O)CCCCN(C)C (stereo not shown) [E8C123A11] | 7.1E+04 |
| CCCCCCCCCCCC(COC(=O)CC(CCCCCCC)CCCCCCC)OC(=O)CCCN(C)C (stereo not shown) [E8C128A9] | 3.9E+04 |
| CCCCCCCCCCCC(COC(=O)CC(CCCCCCC)CCCCCCC)OC(=O)CCCCN(C)C (stereo not shown) [E8C128A11] | 3.5E+04 |
| CCCCCCCCCCCCC(COC(=O)C(CCCC)CCCCCCCCCC)OC(=O)CCCN(C)C (stereo not shown) [E9C104A9] | 3.6E+04 |
| CCCCCCCCCCCCC(COC(=O)C(CCCC)CCCCCCCCCC)OC(=O)CCCCN(C)C (stereo not shown) [E9C104A11] | 4.4E+04 |
| CCCCCCCCCCCCC(COC(=O)C(CCCCC)CCCCCCCCC)OC(=O)CCCN(C)C (stereo not shown) [E9C109A9] | 3.6E+04 |
| CCCCCCCCCCCCC(COC(=O)C(CCCCC)CCCCCCCCC)OC(=O)CCCCN(C)C (stereo not shown) [E9C109A11] | 3.6E+04 |
| CCCCCCCCCCCCC(COC(=O)C(CCCCC)CCCCCCCCCCC)OC(=O)CCCCN(C)C (stereo not shown) [E9C111A11] | 3.9E+04 |
| CCCCCCCCCCCCC(COC(=O)C(CCCCCCC)CCCCCCC)OC(=O)CCCN(C)C (stereo not shown) [E9C114A9] | 9.1E+04 |
| CCCCCCCCCCCCC(COC(=O)C(CCCCCCC)CCCCCCC)OC(=O)CCCCN(C)C (stereo not shown) [E9C114A11] | 8.5E+04 |
| CCCCCCCCCCCCC(COC(=O)C(CCCCCCCC)CCCCCCCC)OC(=O)CCCN(C)C (stereo not shown) [E9C115A9] | 1.4E+05 |
| CCCCCCCCCCCCC(COC(=O)C(CCCCCCCC)CCCCCCCC)OC(=O)CCCCN(C)C (stereo not shown) [E9C115A11] | 1.9E+05 |
| CCCCCCCCCCCCC(COC(=O)C(CCCCCCCCC)CCCCCCCCC)OC(=O)CCCCN(C)C (stereo not shown) [E9C116A11] | 7.6E+04 |

| Compound | Luciferase luminescence intensity |
| --- | --- |
| CCCCCCCCCCCCC(COC(=O)CC(CCCCC)CCCCCCCCC)OC(=O)CCCCN(C)C (stereo not shown) [E9C123A11] | 5.1E+04 |
| CCCCCCCCCCCCC(COC(=O)CC(CCCCCCC)CCCCCCC)OC(=O)CCCN(C)C (stereo not shown) [E9C128A9] | 3.7E+04 |
| CCCCCCCCCCCCC(COC(=O)CC(CCCCCCC)CCCCCCC)OC(=O)CCCCN(C)C (stereo not shown) [E9C128A11] | 3.5E+04 |
| CCCCCCCCCCCCCC(COC(=O)C(CCCC)CCCCCCCCCCCC)OC(=O)CCCN(C)C (stereo not shown) [E10C106A9] | 4.2E+04 |
| CCCCCCCCCCCCCC(COC(=O)C(CCCCC)CCCCCCCCC)OC(=O)CCCCN(C)C (stereo not shown) [E10C109A11] | 3.5E+04 |
| CCCCCCCCCCCCCC(COC(=O)C(CCCCC)CCCCCCCCCCC)OC(=O)CCCN(C)C (stereo not shown) [E10C111A9] | 3.7E+04 |
| CCCCCCCCCCCCCC(COC(=O)C(CCCCCCC)CCCCCCC)OC(=O)CCCN(C)C (stereo not shown) [E10C114A9] | 4.3E+04 |
| CCCCCCCCCCCCCC(COC(=O)C(CCCCCCC)CCCCCCC)OC(=O)CCCCN(C)C (stereo not shown) [E10C114A11] | 7.6E+04 |
| CCCCCCCCCCCCCC(COC(=O)C(CCCCCCCC)CCCCCCCC)OC(=O)CCCN(C)C (stereo not shown) [E10C115A9] | 4.4E+04 |
| CCCCCCCCCCCCCC(COC(=O)C(CCCCCCCC)CCCCCCCC)OC(=O)CCCCN(C)C (stereo not shown) [E10C115A11] | 8.2E+04 |
| CCCCCCCCCCCCCC(COC(=O)CC(CCCCCCC)CCCCCCC)OC(=O)CCCN(C)C (stereo not shown) [E10C128A9] | 3.8E+04 |
| CCCCCCCCCCCCCC(COC(=O)CC(CCCCCCC)CCCCCCC)OC(=O)CCCCN(C)C (stereo not shown) [E10C128A11] | 4.7E+04 |
| CCCCCCCCCCCCCCC(COC(=O)C(CCCCC)CCCCCCCCC)OC(=O)CCCN(C)C (stereo not shown) [E11C109A9] | 4.3E+04 |
| CCCCCCCCCCCCCCC(COC(=O)C(CCCCC)CCCCCCCCC)OC(=O)CCCCN(C)C (stereo not shown) [E11C109A11] | 4.8E+04 |
| CCCCCCCCCCCCCCC(COC(=O)C(CCCCCCC)CCCCCCC)OC(=O)CCCN(C)C (stereo not shown) [E11C114A9] | 4.5E+04 |
| CCCCCCCCCCCCCCC(COC(=O)C(CCCCCCC)CCCCCCC)OC(=O)CCCCN(C)C (stereo not shown) [E11C114A11] | 6.5E+04 |
| CCCCCCCCCCCCCCC(COC(=O)C(CCCCCCCC)CCCCCCCC)OC(=O)CCCN(C)C (stereo not shown) [E11C115A9] | 4.9E+04 |
| CCCCCCCCCCCCCCC(COC(=O)C(CCCCCCCC)CCCCCCCC)OC(=O)CCCCN(C)C (stereo not shown) [E11C115A11] | 6.3E+04 |
| CCCCCCCCCCCCCCC(COC(=O)CC(CCCCCC)CCCCCCCC)OC(=O)CCCN(C)C (stereo not shown) [E11C126A9] | 3.6E+04 |
| CCCCCCCCCCCCCCC(COC(=O)CC(CCCCCCC)CCCCCCC)OC(=O)CCCN(C)C (stereo not shown) [E11C128A9] | 3.9E+04 |
| CCCCCCCCCCCCCCC(COC(=O)CC(CCCCCCC)CCCCCCC)OC(=O)CCCCN(C)C (stereo not shown) [E11C128A11] | 4.2E+04 |
